# Source: US6906090B1, “Compositions and methods for treating mycobacterial diseases” (AstraZeneca AB, priority 1998, dated 2005)
# Tested on: M. tuberculosis
# Assay: BACTEC radiometric MIC test for bactericidal activity against M. tuberculosis
# Assay type: cell-based
# Details: Mycobacterium tuberculosis, read-out: minimum inhibitory concentration (MIC)
row,Structure (SMILES),MIC [µg/mL]
1,"O=C1C(=O)N(CCC2CCN(Cc3ccccc3)CC2)c2ccc(C3CCCCC3)cc21 [Example 1, 5-Cyclohexyl-1-[2-[1-(phenylmethyl)-4-piperidinyl]ethyl]-1H-indole-2,3-dione]",≤ 20
2,"O=C1C(=O)N(CCN2CCN(Cc3ccccc3)CC2)c2c1cccc2C1CCCCCC1 [Example 2, 7-Cycloheptyl-1-[2-[4-(phenylmethyl)-1-piperazinyl]ethyl]-1H-indole-2,3-dione]",≤ 20
3,"CCN(CCCCCN1C(=O)C(=O)c2cc(C3CCCCC3)ccc21)Cc1ccccc1 [Example 3, 5-Cyclohexyl-1-(5-(N-ethyl-N-phenylmethylamino)pentyl)-1H-indole-2,3-dione]",≤ 20
4,"O=C1Cc2cc(C3CCCCC3)ccc2N1CCC1CCN(Cc2ccccc2)CC1 [Example 4, 5-Cyclohexyl-1,3-dihydro-1-[2-[1-(phenylmethyl) 4-piperidinyl]ethyl]-2H-2H-indol-2-one]",≤ 20
5,"CCN(CCCCN1C(=O)C(=O)c2ccccc21)Cc1ccccc1 [Example 5, 1-(4-(N-Ethyl-N-phenylmethylamino)butyl)-1H-indole-2,3-dione]",≤ 20
6,"O=C1C(=O)N(CCN2CCN(Cc3ccccc3)CC2)c2ccc(-c3ccccc3)cc21 [Example 6, 5-Phenyl-1-[2-[4-(phenylmethyl)-1-perazinyl]ethyl]-1H-indole-2,3-dione]",≤ 20
7,"O=C1C(=O)N(CCN2CCN(Cc3ccccc3)CC2)c2c1cccc2C1CCCC1 [Example 7, 7-Cyclopentyl-1-[2-[4-(phenylmethyl)-1-piperazinyl]ethyl]-1H-indole-2,3-dione]",≤ 20
8,"O=C1C(=O)N(CCN2CCN(Cc3ccccc3)CC2)c2ccc(N3CCCCC3)cc21 [Example 8, 5-(1-Piperidinyl)-1-[2-[4-(phenylmethyl)-1-piperazinyl]ethyl]-1H-indole-2,3-dione]",≤ 20
9,"O=C1C(=O)N(CCCCBr)c2ccc(C3CCCCC3)cc21 [Example 9, 1-(4-Bromobutyl)-5-cyclohexyl-1H-indole-2,3-dione]",≤ 20
10,"CCCCCCCCCN1C(=O)C(=O)c2cccc(-c3ccccc3)c21 [Example 10, 1-Nonyl-7-phenyl-1H-indole-2,3-dione]",≤ 20
11,"CCCCCCCN1C(=O)C(=O)c2cccc(-c3ccccc3)c21 [Example 11, 1-Heptyl-7-phenyl-1H-indole-2,3-dione]",≤ 20
12,"CCCCCCCCN1C(=O)C(=O)c2cccc(-c3ccccc3)c21 [Example 12, 1-Octyl-7-phenyl-1-H-indole-2,3-dione]",≤ 20
13,"CCCCCCCCCCN1C(=O)C(=O)c2cccc(-c3ccccc3)c21 [Example 13, 1-Decyl-7-phenyl-1-H-indole-2,3-dione]",≤ 20
14,"CCCCCCCCCCCN1C(=O)C(=O)c2cccc(-c3ccccc3)c21 [Example 14, 1-Undececyl-7-phenyl-1-H-indole-2,3-dione]",≤ 20
15,"CCCCCN1C(=O)C(=O)c2cccc(-c3ccccc3)c21 [Example 15, 1-Pentyl-7-phenyl-1H-indole-2,3-dione]",≤ 20
16,"CCCCN1C(=O)C(=O)c2cccc(-c3ccccc3)c21 [Example 16, 1-Butyl-7-phenyl-1H-inidole-2,3-dione]",≤ 20
17,"CC(C)CN1C(=O)C(=O)c2cccc(-c3ccccc3)c21 [Example 17, 1-(2-Methylpropyl)-7-phenyl-1H-indole-2,3-dione]",≤ 20
18,"CCCCCCN1C(=O)C(=O)c2cccc(-c3ccccc3)c21 [Example 18, 1-Hexyl-7-phenyl-1-indole-2,3-dione]",≤ 20
19,"CCCCCCCCCCCCN1C(=O)C(=O)c2cccc(-c3ccccc3)c21 [Example 19, 1-Dodecyl-7-phenyl-1H-indole-2,3-dione]",≤ 20
20,"O=C1C(=O)N(CCCCBr)c2c1cccc2-c1ccccc1 [Example 20, 1-(4-Bromobutyl)-7-phenyl-1H-indole-2,3-dione]",≤ 20
